Assay [1] deals with T1, recombinant human BCAT2 enzyme (Homo sapiens, UniProt O15382).
T1 construct: purchased ATGen (South Korea) ATGP1523
T1 sequence (O15382 28-392): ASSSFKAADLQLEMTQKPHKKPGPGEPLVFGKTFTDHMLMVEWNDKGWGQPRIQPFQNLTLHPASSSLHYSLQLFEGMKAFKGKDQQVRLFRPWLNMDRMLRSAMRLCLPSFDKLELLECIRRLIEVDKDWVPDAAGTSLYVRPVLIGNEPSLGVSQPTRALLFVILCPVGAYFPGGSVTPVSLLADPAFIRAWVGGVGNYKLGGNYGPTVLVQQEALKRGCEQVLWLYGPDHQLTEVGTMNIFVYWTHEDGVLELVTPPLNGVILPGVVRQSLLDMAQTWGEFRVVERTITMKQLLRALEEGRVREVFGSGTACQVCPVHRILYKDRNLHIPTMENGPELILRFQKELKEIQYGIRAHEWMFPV
Kind of assay: In vitro assay 1b: BCAT2 biochemical assay (coupled LeuDH/NADH fluorescence readout). Note: recombinant human BCAT2 0.75 nM. The conditions noted are these: recombinant human BCAT2 […], 32° C., 100 μM leucine, 50 μM α-ketoglutarate, NADH fluorescence over 90 min; read-out: BCAT2 IC50. The essentials: (§1)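 Transamination of leucine to KIC coupled to LeuDH-driven NADH-dependent reduction of KIC, NADH consumption read by fluorescence; 32° C in 50 mM HEPES pH 8.0, 50 mM ammonium sulfate, 1 mM EDTA, 2 mM DTT, 0.01% BSA, 0.005% Brij 35, 0.5 μM PLP.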

Assay [2] has as its target T2, recombinant human BCAT1 enzyme (Homo sapiens, UniProt P54687).
T2 construct: purchased ATGen (South Korea) ATGP1479
T2 sequence (P54687 1-386): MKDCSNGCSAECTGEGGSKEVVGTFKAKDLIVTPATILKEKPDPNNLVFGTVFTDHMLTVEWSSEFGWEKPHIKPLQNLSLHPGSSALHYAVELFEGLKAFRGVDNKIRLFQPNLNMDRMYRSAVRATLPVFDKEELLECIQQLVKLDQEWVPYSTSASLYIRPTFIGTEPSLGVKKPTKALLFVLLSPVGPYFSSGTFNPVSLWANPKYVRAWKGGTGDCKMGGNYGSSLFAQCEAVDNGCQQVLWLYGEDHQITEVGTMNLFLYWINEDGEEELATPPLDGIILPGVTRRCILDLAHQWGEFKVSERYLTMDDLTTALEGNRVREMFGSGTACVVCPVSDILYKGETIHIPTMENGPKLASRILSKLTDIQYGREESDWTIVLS
Kind of assay: In vitro assay 1a: BCAT1 biochemical assay (coupled LeuDH/NADH fluorescence readout). The settings on record: recombinant human BCAT1 […], 32° C., 100 μM leucine, 50 μM α-ketoglutarate, NADH fluorescence over 90 min; read-out: BCAT1 IC50. The procedure, abridged: as §1

A further assay relates to MDA-MB231 cells. Kind of assay: In vitro assay 2: BCAT cellular assay, leucine in medium of MDA-MB231 cells. The conditions noted are these: 24 hours incubation, leucine level in medium (LeuDH/diaphorase/resazurin readout), read-out: MDAMB-231 IC50. The assay is classed as cell-based. A general note: Resazurin is reduced to fluorescent resorufin, in cell work by metabolically active cells.

The next assay has as its system U87-MG cells. The assay is described as follows: In vitro assay 2: BCAT cellular assay, leucine in medium of U87-MG cells. In kind it is cell-based. The conditions noted are these: Homo sapiens, U-87 MG, 24 h, 24 hours incubation, leucine level in medium (LeuDH/diaphorase/resazurin readout). As for the experimental part:
In Vitro Assay 2: BCAT Cellular Assay
Levels of leucine were measured in medium of different tumor cell lines. The enzyme BOAT (Branched chain amino acid transferase) catalyzes the consumption of leucine.
Cells (U87-MG and MDA-MB231 from ATCC) were grown in Dulbecco's Modified Eagle Medium (DMEM) containing 10% fetal calf serum. They were harvested by trypsin and seeded into 96-well plates. Cells were incubated overnight at 37° C. in an atmosphere containing 5% carbon dioxide. The next day test compounds were added to each cell well. The final concentration of dimethylsulfoxide (DMSO) was 0.1% and DMSO controls were included. The plates were then placed in an incubator for 24 hours.
Leucine was measured in an enzymatic readout with leucine dehydrogenase (LeuDH) and diaphorase. Medium is deproteinized with perchloric acid. 30 μl of 1 M aqueous perchloric acid was added to each well and the plates were centrifuged.

IC50 data for three compounds are collected here from US20220411381A1, “PYRIMIDINEDIONE DERIVATIVES” (Bayer Aktiengesellschaft, priority 2019, published 2022).

Read-outs that look alike come from different tables or passages of the source. Bounds are passed on as bounds.

As a reminder, the IC50 is the concentration that gives 50% inhibition.

With `COc1cc(C#N)c(Oc2ccccc2Cl)cc1-n1c(=O)cc(C(F)(F)F)[nH]c1=O` (racemic) [Example 15, 2-(2-Chlorophenoxy)-4-[2,6-dioxo-4-(trifluoromethyl)-3,6-dihydropyrimidin-1(2H)-yl]-5-methoxybenzonitrile (rac)], the IC50 in assay [1] amounted to 0.83 µM; in assay [2], 0.148 µM; in the assay with MDA-MB231 cells (Homo sapiens, MDA-MB-231, 24 h), 17 µM; in the assay on U87-MG cells it was 20 µM.
`N#Cc1ccc(-n2c(=O)cc(C(F)(F)F)[nH]c2=O)cc1Oc1ccccc1Cl` [Example 46, 2-(2-Chlorophenoxy)-4-[2,6-dioxo-4-(trifluoromethyl)-3,6-dihydropyrimidin-1 (2H)-yl]benzonitrile]: the IC50 is 6 µM in assay [1]; 0.675 µM in assay [2]; greater than 30 µM in the assay on MDA-MB231 cells (Homo sapiens, MDA-MB-231, 24 h); 25 µM with U87-MG cells.
As to `Cc1cc(C#N)c(Oc2ccccc2Cl)cc1-n1c(=O)cc(C(F)(F)F)[nH]c1=O` (racemic) [Example 10, 2-(2-Chlorophenoxy)-4-[2,6-dioxo-4-(trifluoromethyl)-3,6-dihydropyrimidin-1 (2H)-yl]-5-methylbenzonitrile (rac)], the IC50 in assay [1] is 6 µM; in assay [2], 0.39 µM; in the assay on MDA-MB231 cells it was greater than 30 µM; in the assay with MDA-MB231 cells (Homo sapiens, MDA-MB-231, 24 h) it was 30 µM; in the assay with U87-MG cells it was 13 µM.
